Laboratory results as given in ChEMBL document CHEMBL1148812, “4-[omega-[4-arylpiperazin-1-yl]alkoxy]phenyl)imidazo[1,2-a]pyridine derivatives: fluorescent high-affinity dopamine D3 receptor ligands as potential probes for receptor visualization” (J Med Chem, 2007).

Tests used:
[1] = molecular target: D(3) dopamine receptor (Homo sapiens, UniProt P35462)
Description: Displacement of [3H]spiroperidol from human cloned dopamine D3 receptor

[2] = molecular target: T1, D(2) dopamine receptor (Homo sapiens, UniProt P14416)
[3] = molecular target: T1, D(2) dopamine receptor; test: Displacement of [3H]spiroperidol from human cloned dopamine D2L receptor at 10 uM

D(3) dopamine receptor, sequence (P35462 whole entry): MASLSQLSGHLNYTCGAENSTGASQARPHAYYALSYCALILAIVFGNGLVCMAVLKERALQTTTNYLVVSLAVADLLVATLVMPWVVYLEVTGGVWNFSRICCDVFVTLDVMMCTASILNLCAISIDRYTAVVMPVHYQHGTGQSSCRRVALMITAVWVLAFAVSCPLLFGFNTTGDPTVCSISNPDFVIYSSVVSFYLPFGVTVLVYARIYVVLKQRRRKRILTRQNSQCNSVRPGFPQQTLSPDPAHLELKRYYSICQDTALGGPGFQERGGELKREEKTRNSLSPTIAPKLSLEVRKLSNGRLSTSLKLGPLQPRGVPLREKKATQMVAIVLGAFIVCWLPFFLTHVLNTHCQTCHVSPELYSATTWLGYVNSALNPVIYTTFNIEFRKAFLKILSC
T1 sequence (P14416 whole entry): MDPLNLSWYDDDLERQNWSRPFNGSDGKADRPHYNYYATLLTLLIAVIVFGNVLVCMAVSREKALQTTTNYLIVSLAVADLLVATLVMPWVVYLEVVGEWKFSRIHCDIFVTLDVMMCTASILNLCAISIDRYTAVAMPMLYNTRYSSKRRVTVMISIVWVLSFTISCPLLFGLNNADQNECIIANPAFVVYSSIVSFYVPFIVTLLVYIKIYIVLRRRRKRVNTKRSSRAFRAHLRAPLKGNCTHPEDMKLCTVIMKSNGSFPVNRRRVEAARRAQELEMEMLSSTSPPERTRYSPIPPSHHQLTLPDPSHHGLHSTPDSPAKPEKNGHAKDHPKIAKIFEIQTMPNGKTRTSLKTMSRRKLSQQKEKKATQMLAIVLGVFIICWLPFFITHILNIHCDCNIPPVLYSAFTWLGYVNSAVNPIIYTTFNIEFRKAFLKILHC

Row | Ki [1] | Ki [2] | inhibition [3] | SMILES
1 | 176 nM | 78 nM | – | COc1ccccc1N1CCN(CCCOc2ccc(-c3cn4cc(C)ccc4n3)cc2)CC1
2 | 385 nM | 159 nM | – | COc1ccccc1N1CCN(CCCCOc2ccc(-c3cn4cccc(C)c4n3)cc2)CC1
3 | 146 nM | 47 nM | – | COc1ccccc1N1CCN(CCCCOc2ccc(-c3cn4cc(C)ccc4n3)cc2)CC1
4 | 28.9 nM | – | 31% | Cc1ccc2nc(-c3ccc(OCCCN4CCN(c5cccc(Cl)c5Cl)CC4)cc3)cn2c1
5 | 8 nM | 149 nM | – | Cc1ccc2nc(-c3ccc(OCCCCN4CCN(c5cccc(Cl)c5Cl)CC4)cc3)cn2c1
6 | 225 nM | 125 nM | – | Cc1cccn2cc(-c3ccc(OCCCN4CCN(c5cccc(Cl)c5Cl)CC4)cc3)nc12
7 | 38 nM | 68 nM | – | Clc1cccc(N2CCN(CCCCOc3ccc(-c4cn5ccccc5n4)cc3)CC2)c1Cl
8 | 40 nM | 52 nM | – | COc1ccccc1N1CCN(CCCCOc2ccc(-c3cn4ccc(C)cc4n3)cc2)CC1
9 | 8 nM | 83 nM | – | Cc1ccn2cc(-c3ccc(OCCCN4CCN(c5cccc(Cl)c5Cl)CC4)cc3)nc2c1
10 | 60 nM | 111 nM | – | Cc1ccn2cc(-c3ccc(OCCCCN4CCN(c5cccc(Cl)c5Cl)CC4)cc3)nc2c1
11 | 54.4 nM | 560 nM | – | Cc1cccn2cc(-c3ccc(OCCCCN4CCN(c5cccc(Cl)c5Cl)CC4)cc3)nc12
12 | 50 nM | 49 nM | – | COc1ccccc1N1CCN(CCCOc2ccc(-c3cn4cccc(C)c4n3)cc2)CC1
13 | 71 nM | 78 nM | – | COc1ccccc1N1CCN(CCCOc2ccc(-c3cn4ccc(C)cc4n3)cc2)CC1
14 | 156 nM | 44 nM | – | Clc1cccc(N2CCN(CCCOc3ccc(-c4cn5ccccc5n4)cc3)CC2)c1Cl

Row | SMILES | Ki [1] | Ki [2] | inhibition [3]
15 | COc1ccccc1N1CCN(CCCOc2ccc(-c3cn4ccccc4n3)cc2)CC1 | 1.6 nM | 49 nM | –
16 | COc1ccccc1N1CCN(CCCCOc2ccc(-c3cn4ccccc4n3)cc2)CC1 | 0.72 nM | 179 nM | –
